Test results as given in PubChem BioAssay AID1963958 (Molecular Pharmacology Branch, DTP, NCI, 2024).

System: MDA-MB-231 multicell spheroids, viability
Test: Anticancer human tumor MDA-MB-231 cell line growth inhibition [PI3K];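 note: spheroids exposed to agents for seven days before reading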;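 for viability, T/C: percent of vehicle control luminescence with DMSO treated spheroids as 100%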
Conditions: for IC50: curve of first compound; for viability, T/C: stronger effect = lower value; active = viability on the fitted dose curve at most 10% of control; inactive = the rest
Outline: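 Tumor cells grown as multi-cell spheroids with HUVEC endothelial cells and MSC fibroblast-like stroma were treated with targeted agents combined with inavolisib, alpelisib, duvelisib or copanlisib. Doses fell in half-log steps from near clinical Cmax, else from 10 microM. Viability was measured.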

[1] = second compound 0.0316 µM, first compound 0.0316 µM
[2] = second compound 0.0316 µM, first compound 0.1 µM
[3] = second compound 0.0316 µM, first compound 0.316 µM
[4] = second compound 0.0316 µM, first compound 1 µM
[5] = second compound 0.1 µM, first compound 0.0316 µM
[6] = second compound 0.1 µM, first compound 0.1 µM
[7] = second compound 0.1 µM, first compound 0.316 µM
[8] = second compound 0.1 µM, first compound 1 µM
[9] = second compound 0.316 µM, first compound 0.0316 µM
[10] = second compound 0.316 µM, first compound 0.1 µM
[11] = second compound 0.316 µM, first compound 0.316 µM
[12] = second compound 0.316 µM, first compound 1 µM
[13] = second compound 1 µM, first compound 0.0316 µM
[14] = second compound 1 µM, first compound 0.1 µM
[15] = second compound 1 µM, first compound 0.316 µM
[16] = second compound 1 µM, first compound 1 µM
[17] = second compound 3.16 µM, first compound 0.0316 µM
[18] = second compound 3.16 µM, first compound 0.1 µM
[19] = second compound 3.16 µM, first compound 0.316 µM
[20] = second compound 3.16 µM, first compound 1 µM
[21] = second compound 10 µM, first compound 0.0316 µM
[22] = second compound 10 µM, first compound 0.1 µM
[23] = second compound 10 µM, first compound 0.316 µM
[24] = second compound 10 µM, first compound 1 µM
[25] = second compound 0.0316 µM, first compound 0.00316 µM
[26] = second compound 0.0316 µM, first compound 0.01 µM
[27] = second compound 0.1 µM, first compound 0.00316 µM
[28] = second compound 0.1 µM, first compound 0.01 µM
[29] = second compound 0.316 µM, first compound 0.00316 µM
[30] = second compound 0.316 µM, first compound 0.01 µM
[31] = second compound 1 µM, first compound 0.00316 µM
[32] = second compound 1 µM, first compound 0.01 µM
[33] = second compound 3.16 µM, first compound 0.00316 µM
[34] = second compound 3.16 µM, first compound 0.01 µM
[35] = second compound 10 µM, first compound 0.00316 µM
[36] = second compound 10 µM, first compound 0.01 µM

CC(C)NCC(C(=O)N1CCN(c2ncnc3c2C(C)CC3O)CC1)c1ccc(Cl)cc1 (stereo unspecified) + Cc1nc(NC(=O)N2CCCC2C(N)=O)sc1-c1ccnc(C(C)(C)C(F)(F)F)c1
7630 nM: IC50 (second compound 0.0316 µM)
6690 nM: IC50 (second compound 0.1 µM)
4400 nM: IC50 (second compound 1 µM)
4090 nM: IC50 (second compound 3.16 µM)
4730 nM: IC50 (second compound 0.316 µM)
3700 nM: IC50 (second compound 10 µM)
inactive: viability, T/C [1] 95.8% | viability, T/C [2] 95.9% | viability, T/C [3] 82.7% | viability, T/C [4] 83.5% | viability, T/C (second compound 0.0316 µM, first compound 3.16 µM) 66.9% | viability, T/C (second compound 0.0316 µM, first compound 10 µM) 44.2% | viability, T/C [5] 84.8% | viability, T/C [6] 79.9% | viability, T/C [7] 71.4% | viability, T/C [8] 73.5% | viability, T/C (second compound 0.1 µM, first compound 3.16 µM) 64% | viability, T/C (second compound 0.1 µM, first compound 10 µM) 42.5% | viability, T/C [9] 72.6% | viability, T/C [10] 77.8% | viability, T/C [11] 73.4% | viability, T/C [12] 63.4% | viability, T/C (second compound 0.316 µM, first compound 3.16 µM) 55% | viability, T/C (second compound 0.316 µM, first compound 10 µM) 42.6% | viability, T/C [13] 70.7% | viability, T/C [14] 66.6% | viability, T/C [15] 63.7% | viability, T/C [16] 60.4% | viability, T/C (second compound 1 µM, first compound 3.16 µM) 55.6% | viability, T/C (second compound 1 µM, first compound 10 µM) 40.4% | viability, T/C [17] 73.7% | viability, T/C [18] 66.4% | viability, T/C [19] 64.3% | viability, T/C [20] 60.6% | viability, T/C (second compound 3.16 µM, first compound 3.16 µM) 54.3% | viability, T/C (second compound 3.16 µM, first compound 10 µM) 40.4% | viability, T/C [21] 68.7% | viability, T/C [22] 65.5% | viability, T/C [23] 61.3% | viability, T/C [24] 59.9% | viability, T/C (second compound 10 µM, first compound 3.16 µM) 53.4% | viability, T/C (second compound 10 µM, first compound 10 µM) 37.8%

CCN1CCN(Cc2ccc(Nc3ncc(F)c(-c4cc(F)c5nc(C)n(C(C)C)c5c4)n3)nc2)CC1 + Cc1nc(NC(=O)N2CCCC2C(N)=O)sc1-c1ccnc(C(C)(C)C(F)(F)F)c1
89.3 nM: IC50 (second compound 0.1 µM)
inactive: viability, T/C [25] 90.9% | viability, T/C [26] 75.5% | viability, T/C [1] 66.3% | viability, T/C [2] 54.2% | viability, T/C [3] 45.3% | viability, T/C [4] 49.6% | viability, T/C [27] 82.4% | viability, T/C [28] 74.1% | viability, T/C [5] 59.8% | viability, T/C [6] 50.5% | viability, T/C [7] 40.8% | viability, T/C [8] 46.4% | viability, T/C [29] 72.3% | viability, T/C [30] 66.7% | viability, T/C [9] 50.3% | viability, T/C [10] 40.9% | viability, T/C [11] 41.3% | viability, T/C [12] 47.9% | viability, T/C [31] 65.8% | viability, T/C [32] 57.3% | viability, T/C [13] 45.8% | viability, T/C [14] 40.2% | viability, T/C [15] 40% | viability, T/C [16] 47.7% | viability, T/C [33] 66.2% | viability, T/C [34] 58.6% | viability, T/C [17] 47.7% | viability, T/C [18] 41.6% | viability, T/C [19] 37.6% | viability, T/C [20] 48.4% | viability, T/C [35] 66.2% | viability, T/C [36] 53.2% | viability, T/C [21] 44.4% | viability, T/C [22] 42% | viability, T/C [23] 39.4% | viability, T/C [24] 47.5%
20.2 nM: IC50 (second compound 1 µM)
23.6 nM: IC50 (second compound 3.16 µM)
13.7 nM: IC50 (second compound 10 µM)
261 nM: IC50 (second compound 0.0316 µM)
30.9 nM: IC50 (second compound 0.316 µM)

Cn1ncnc1[C@H]1c2n[nH]c(=O)c3cc(F)cc(c23)N[C@@H]1c1ccc(F)cc1 + Cc1nc(NC(=O)N2CCCC2C(N)=O)sc1-c1ccnc(C(C)(C)C(F)(F)F)c1
inactive: viability, T/C (second compound 0.0316 µM, first compound 0.000316 µM) 89.3% | viability, T/C (second compound 0.0316 µM, first compound 0.001 µM) 88.9% | viability, T/C [25] 86.8% | viability, T/C [26] 83.4% | viability, T/C [1] 79% | viability, T/C [2] 72.6% | viability, T/C (second compound 0.1 µM, first compound 0.000316 µM) 88.4% | viability, T/C (second compound 0.1 µM, first compound 0.001 µM) 82% | viability, T/C [27] 77.5% | viability, T/C [28] 68.7% | viability, T/C [5] 65% | viability, T/C [6] 63.2% | viability, T/C (second compound 0.316 µM, first compound 0.000316 µM) 67.2% | viability, T/C (second compound 0.316 µM, first compound 0.001 µM) 75.2% | viability, T/C [29] 65.6% | viability, T/C [30] 64.1% | viability, T/C [9] 59.7% | viability, T/C [10] 53.5% | viability, T/C (second compound 1 µM, first compound 0.000316 µM) 68.3% | viability, T/C (second compound 1 µM, first compound 0.001 µM) 66% | viability, T/C [31] 65.1% | viability, T/C [32] 60% | viability, T/C [13] 55.2% | viability, T/C [14] 49.7% | viability, T/C (second compound 3.16 µM, first compound 0.000316 µM) 64.5% | viability, T/C (second compound 3.16 µM, first compound 0.001 µM) 63.4% | viability, T/C [33] 64.5% | viability, T/C [34] 54% | viability, T/C [17] 54.6% | viability, T/C [18] 50.4% | viability, T/C (second compound 10 µM, first compound 0.000316 µM) 66% | viability, T/C (second compound 10 µM, first compound 0.001 µM) 63.4% | viability, T/C [35] 56% | viability, T/C [36] 59.8% | viability, T/C [21] 54.4% | viability, T/C [22] 48.8%
> 100 nM: IC50 (second compound 0.0316 µM) | IC50 (second compound 0.1 µM) | IC50 (second compound 0.316 µM) | IC50 (second compound 1 µM) | IC50 (second compound 3.16 µM) | IC50 (second compound 10 µM)
